Assay results from ChEMBL document CHEMBL3994622, “Design and synthesis of new RAF kinase-inhibiting antiproliferative quinoline derivatives. Part 2: Diarylurea derivatives” (Eur J Med Chem, 2017).

What was measured:
Format in all cases: functional
[1] = system: NCI-H23; assay: Growth inhibition of human NCI-H23 cells assessed as cell growth at 10 uM incubated for 48 hrs by sulforhodamine B assay relative to control; details: NCI-H23, 48 h, read-out: Activity
[2] = system: SR; assay: Growth inhibition of human SR cells assessed as cell growth at 10 uM incubated for 48 hrs by sulforhodamine B assay relative to control; details: read-out: Activity
[3] = system: MOLT-4; assay: Growth inhibition of human MOLT4 cells assessed as cell growth at 10 uM incubated for 48 hrs by sulforhodamine B assay relative to control; details: MOLT-4, 48 h, read-out: Activity
[4] = system: CCRF-CEM; assay: Growth inhibition of human CCRF-CEM cells assessed as cell growth at 10 uM incubated for 48 hrs by sulforhodamine B assay relative to control; details: read-out: Activity
[5] = system: HL-60(TB); assay: Growth inhibition of human HL-60(TB) cells assessed as cell growth at 10 uM incubated for 48 hrs by sulforhodamine B assay relative to control; details: HL-60, 48 h, read-out: Activity
[6] = system: A498; assay: Growth inhibition of human A498 cells assessed as cell growth at 10 uM incubated for 48 hrs by sulforhodamine B assay relative to control; details: A498, 48 h, read-out: Activity
[7] = system: NCI-H522; assay: Growth inhibition of human NCI-H522 cells assessed as cell growth at 10 uM incubated for 48 hrs by sulforhodamine B assay relative to control; details: NCI-H522, 48 h, read-out: Activity
[8] = system: KM12; assay: Growth inhibition of human KM12 cells assessed as cell growth at 10 uM incubated for 48 hrs by sulforhodamine B assay relative to control; details: KM12, 48 h, read-out: Activity
[9] = system: HCT-116; assay: Growth inhibition of human HCT116 cells assessed as cell growth at 10 uM incubated for 48 hrs by sulforhodamine B assay relative to control; details: HCT-116, 48 h, read-out: Activity
[10] = system: CAKI-1; assay: Growth inhibition of human Caki1 cells assessed as cell growth at 10 uM incubated for 48 hrs by sulforhodamine B assay relative to control; details: CAKI-1, 48 h, read-out: Activity
[11] = system: ACHN; assay: Growth inhibition of human ACHN cells assessed as cell growth at 10 uM incubated for 48 hrs by sulforhodamine B assay relative to control; details: read-out: Activity
[12] = system: IGROV-1; assay: Growth inhibition of human IGROV1 cells assessed as cell growth at 10 uM incubated for 48 hrs by sulforhodamine B assay relative to control; details: IGROV-1, 48 h, read-out: Activity
[13] = system: SF-268; assay: Growth inhibition of human SF268 cells assessed as cell growth at 10 uM incubated for 48 hrs by sulforhodamine B assay relative to control; details: SF-268, 48 h, read-out: Activity
[14] = system: Hs-578T; assay: Growth inhibition of human Hs 578T cells assessed as cell growth at 10 uM incubated for 48 hrs by sulforhodamine B assay relative to control; details: read-out: Activity
[15] = system: A549; assay: Growth inhibition of human A549/ATCC cells assessed as cell growth at 10 uM incubated for 48 hrs by sulforhodamine B assay relative to control; details: A549, 48 h, read-out: Activity
[16] = system: NCI-H460; assay: Growth inhibition of human NCI-H460 cells assessed as cell growth at 10 uM incubated for 48 hrs by sulforhodamine B assay relative to control; details: NCI-H460, 48 h, read-out: Activity
[17] = system: OVCAR-5; assay: Growth inhibition of human OVCAR5 cells assessed as cell growth at 10 uM incubated for 48 hrs by sulforhodamine B assay relative to control; details: OVCAR-5, 48 h, read-out: Activity
[18] = system: SNB-19; assay: Growth inhibition of human SNB19 cells assessed as cell growth at 10 uM incubated for 48 hrs by sulforhodamine B assay relative to control; details: SNB-19, 48 h, read-out: Activity
[19] = system: SK-OV-3; assay: Growth inhibition of human SKOV3 cells assessed as cell growth at 10 uM incubated for 48 hrs by sulforhodamine B assay relative to control; details: SK-OV-3, 48 h, read-out: Activity
[20] = system: NCI-H226; assay: Growth inhibition of human NCI-H226 cells assessed as cell growth at 10 uM incubated for 48 hrs by sulforhodamine B assay relative to control; details: NCI-H226, 48 h, read-out: Activity
[21] = system: MDA-MB-231; assay: Growth inhibition of human MDA-MB-231 cells assessed as cell growth at 10 uM incubated for 48 hrs by sulforhodamine B assay relative to control; details: MDA-MB-231, 48 h, read-out: Activity
[22] = system: MDA-MB-468; assay: Growth inhibition of human MDA-MB-468 cells assessed as cell growth at 10 uM incubated for 48 hrs by sulforhodamine B assay relative to control; details: MDA-MB-468, 48 h, read-out: Activity
[23] = system: M14; assay: Growth inhibition of human M14 cells assessed as cell growth at 10 uM incubated for 48 hrs by sulforhodamine B assay relative to control; details: M14, 48 h, read-out: Activity
[24] = system: UACC-62; assay: Growth inhibition of human UACC62 cells assessed as cell growth at 10 uM incubated for 48 hrs by sulforhodamine B assay relative to control; details: UACC-62, 48 h, read-out: Activity
[25] = system: SN12C; assay: Growth inhibition of human SN12C cells assessed as cell growth at 10 uM incubated for 48 hrs by sulforhodamine B assay relative to control; details: read-out: Activity

Row | SMILES | growth at 10 µM [1] [%] | growth at 10 µM [2] [%] | growth at 10 µM [3] [%] | growth at 10 µM [4] [%] | growth at 10 µM [5] [%] | growth at 10 µM [6] [%] | growth at 10 µM [7] [%] | growth at 10 µM [8] [%] | growth at 10 µM [9] [%] | growth at 10 µM [10] [%] | growth at 10 µM [11] [%] | growth at 10 µM [12] [%] | growth at 10 µM [13] [%] | growth at 10 µM [14] [%] | growth at 10 µM [15] [%] | growth at 10 µM [16] [%] | growth at 10 µM [17] [%] | growth at 10 µM [18] [%] | growth at 10 µM [19] [%] | growth at 10 µM [20] [%] | also measured
1 | COc1cc2cc(Oc3ccc(NC(=O)Nc4ccc(C)cc4)cc3)c(C)nc2cc1OC | 95.5 | 83.1 | 82.4 | 101 | 93 | 116 | 69.9 | 104 | 107 | 98.2 | 103 | 101 | 80.2 | 76.5 | 102 | 108 | 110 | 97.1 | 87.8 | 102 | growth at 10 µM [21]: 85.6%; growth at 10 µM [22]: 97.1%; growth at 10 µM [23]: 124%; growth at 10 µM [24]: 99.3%; growth at 10 µM [25]: 93%
2 | COc1cc2cc(Sc3ccc(NC(=O)Nc4ccc(Cl)c(Cl)c4)cc3)c(C)nc2cc1OC | 84.7 | 52.7 | 38.1 | 50.7 | 77.3 | 73 | 66 | 74.5 | 67.9 | 64.5 | 72.6 | 75.3 | 72.6 | 85.6 | 59.5 | 74.6 | 84.7 | 84.9 | 55 | 90.9 | growth at 10 µM [21]: 87.9%; growth at 10 µM [22]: 55.1%; growth at 10 µM [23]: 81.3%; growth at 10 µM [24]: 69.5%; growth at 10 µM [25]: 78.8%
